Results from BindingDB's records for doi:10.1111/cbdd.12732 (Yogi Vemana University, 2016).

Target: Acetylcholinesterase (Electrophorus electricus, UniProt O42275)
Assay: AChE Inhibitory Assay
Conditions: pH 7.7
Method: The mixture was incubated at 25 °C for 5 min. Subsequently, the enzymatic reaction was initiated by addition of 15 µL of 1 mM of acetylthiocholine iodide or butyrylthiocholine iodide (according to the respective enzyme), and the mixture was again incubated for 5 min at 25 °C. The rate of absorbance change was measured at 412 nm for 6 min using a microplate reader (Bio-Rad 680, Germany). Galantamine was applied as positive drug.

Sequence of Acetylcholinesterase (O42275 whole entry): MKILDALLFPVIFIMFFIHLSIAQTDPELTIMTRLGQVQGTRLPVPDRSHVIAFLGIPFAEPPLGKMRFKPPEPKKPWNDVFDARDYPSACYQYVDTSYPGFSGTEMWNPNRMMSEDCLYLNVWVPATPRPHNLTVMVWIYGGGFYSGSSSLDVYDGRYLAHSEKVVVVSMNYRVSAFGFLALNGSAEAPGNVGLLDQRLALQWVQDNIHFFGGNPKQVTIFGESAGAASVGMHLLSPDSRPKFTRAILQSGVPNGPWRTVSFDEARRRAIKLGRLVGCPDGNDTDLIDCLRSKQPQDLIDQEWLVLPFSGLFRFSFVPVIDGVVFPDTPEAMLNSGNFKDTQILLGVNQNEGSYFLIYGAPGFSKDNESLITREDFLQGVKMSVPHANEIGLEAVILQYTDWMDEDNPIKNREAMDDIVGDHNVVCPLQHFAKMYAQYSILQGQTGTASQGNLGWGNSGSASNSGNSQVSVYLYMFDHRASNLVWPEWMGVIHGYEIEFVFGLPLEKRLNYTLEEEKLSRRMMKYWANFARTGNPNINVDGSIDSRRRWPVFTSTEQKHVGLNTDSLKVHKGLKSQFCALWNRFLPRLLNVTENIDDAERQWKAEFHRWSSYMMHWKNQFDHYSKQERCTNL

Row | Compound | IC50 [nM]
1 | COc1ccc(C(C)NC(=O)c2cc3c(ccc4ccc(=O)oc43)oc2=N)cc1 (configuration not stated) [8-imino-N-(1-(4-methoxyphenyl)ethyl)-2-oxo-2H,8Hpyrano[2,3-f]chromene-9-carboxamide (4j)] | 390
2 | N=c1oc2ccc3ccc(=O)oc3c2cc1C(=O)NCc1cccc(Br)c1 [N-(3-bromobenzyl)-8-imino-2-oxo-2H,8H-pyrano[2,3-f]chromene-9-carboxamide (4m)] | 13
3 | CNC(=O)c1cc2c(ccc3ccc(=O)oc32)oc1=N [8-imino-N-methyl-2-oxo-2H,8H-pyrano[2,3-f]chromene-9-carboxamide (4a)] | 415
4 | Cc1cc(=O)oc2c1ccc1oc(=N)c(C(=O)NCc3ccc(C(C)(C)C)cc3)cc12 [N-(4-(tert-butyl)benzyl)-8-imino-4-methyl-2-oxo-2H,8H-pyrano[2,3-f]chromene-9-carboxamide (4p)] | 77
5 | CCCCCCCCCCCCNC(=O)c1cc2c(ccc3ccc(=O)oc32)oc1=N [N-dodecyl-8-imino-2-oxo-2H,8H-pyrano[2,3-f]chromene-9-carboxamide (4c)] | 83
6 | COc1ccccc1OCCNC(=O)c1cc2c(ccc3ccc(=O)oc32)oc1=N [8-imino-N-(2-(2-methoxyphenoxy)ethyl)-2-oxo-2H,8H-pyrano[2,3-f]chromene-9-carboxamide (4q)] | 440
7 | N=c1oc2ccc3ccc(=O)oc3c2cc1C(=O)NCc1ccccc1 [N-benzyl-8-imino-2-oxo-2H,8H-pyrano[2,3-f]chromene-9-carboxamide (4g)] | 497
8 | N=c1oc2ccc3ccc(=O)oc3c2cc1C(=O)N1CCOCC1 [8-imino-9-(morpholine-4-carbonyl)-2H,8H-pyrano[2,3-f]chromen-2-one (4f)] | 226
9 | N=c1oc2ccc3ccc(=O)oc3c2cc1C(=O)NC(c1ccccc1)c1ccccc1 [N-benzhydryl-8-imino-2-oxo-2H,8H-pyrano[2,3-f]chromene-9-carboxamide (4i)] | 669
10 | COc1ccc(CNC(=O)c2cc3c(ccc4ccc(=O)oc43)oc2=N)c(OC)c1 [N-(2,4-dimethoxybenzyl)-8-imino-2-oxo-2H,8H-pyrano[2,3-f]chromene-9-carboxamide (4k)] | 300
11 | N=c1oc2ccc3ccc(=O)oc3c2cc1C(=O)NC1CCCCC1 [N-cyclohexyl-8-imino-2-oxo-2H,8H-pyrano[2,3-f]chromene-9-carboxamide (4e)] | 169
12 | CCNC(=O)c1cc2c(ccc3ccc(=O)oc32)oc1=N [N-ethyl-8-imino-2-oxo-2H,8H-pyrano[2,3-f]chromene-9-carboxamide (4b)] | 259
13 | N=c1oc2ccc3ccc(=O)oc3c2cc1C(=O)NCc1ccccc1Br [N-(2-bromobenzyl)-8-imino-2-oxo-2H,8H-pyrano[2,3-f]chromene-9-carboxamide (4l)] | 27
14 | N=c1oc2ccc3ccc(=O)oc3c2cc1C(=O)NC1CC1 [N-cyclopropyl-8-imino-2-oxo-2H,8H-pyrano[2,3-f]chromene-9-carboxamide (4d)] | 799
15 | CC(NC(=O)c1cc2c(ccc3ccc(=O)oc32)oc1=N)c1ccccc1 (configuration not stated) [8-imino-2-oxo-N-(1-phenylethyl)-2H,8H-pyrano[2,3-f]chromene-9-carboxamide (4h)] | 462
16 | N=c1oc2ccc3ccc(=O)oc3c2cc1C(=O)NCc1cccc(Cl)c1 [N-(3-chlorobenzyl)-8-imino-2-oxo-2H,8H-pyrano[2,3-f]chromene-9-carboxamide (4o)] | 88
17 | N=c1oc2ccc3ccc(=O)oc3c2cc1C(=O)NCc1ccccc1Cl [N-(2-chlorobenzyl)-8-imino-2-oxo-2H,8H-pyrano[2,3-f]chromene-9-carboxamide (4n)] | 30
